Data taken from patent US9255100B2 (BAYER INTELLECTUAL PROPERTY GMBH, priority 2010, dated 2016).

How the values were obtained:
[1] = target: T1, N-terminally GST-tagged human full length recombinant Mps-1 kinase (Homo sapiens, UniProt P33981); assay: Mps-1 kinase assay (TR-FRET); assay type: biochemical; conditions: Mps1 IC50 [nM], 10 μM ATP, 1 μM peptide substrate, 60 min at 22° C.
T1 construct: N-terminally GST-tagged human full length recombinant Mps-1 kinase; purchased Invitrogen, Karslruhe, Germany PV4071
T1 sequence (P33981 1-857): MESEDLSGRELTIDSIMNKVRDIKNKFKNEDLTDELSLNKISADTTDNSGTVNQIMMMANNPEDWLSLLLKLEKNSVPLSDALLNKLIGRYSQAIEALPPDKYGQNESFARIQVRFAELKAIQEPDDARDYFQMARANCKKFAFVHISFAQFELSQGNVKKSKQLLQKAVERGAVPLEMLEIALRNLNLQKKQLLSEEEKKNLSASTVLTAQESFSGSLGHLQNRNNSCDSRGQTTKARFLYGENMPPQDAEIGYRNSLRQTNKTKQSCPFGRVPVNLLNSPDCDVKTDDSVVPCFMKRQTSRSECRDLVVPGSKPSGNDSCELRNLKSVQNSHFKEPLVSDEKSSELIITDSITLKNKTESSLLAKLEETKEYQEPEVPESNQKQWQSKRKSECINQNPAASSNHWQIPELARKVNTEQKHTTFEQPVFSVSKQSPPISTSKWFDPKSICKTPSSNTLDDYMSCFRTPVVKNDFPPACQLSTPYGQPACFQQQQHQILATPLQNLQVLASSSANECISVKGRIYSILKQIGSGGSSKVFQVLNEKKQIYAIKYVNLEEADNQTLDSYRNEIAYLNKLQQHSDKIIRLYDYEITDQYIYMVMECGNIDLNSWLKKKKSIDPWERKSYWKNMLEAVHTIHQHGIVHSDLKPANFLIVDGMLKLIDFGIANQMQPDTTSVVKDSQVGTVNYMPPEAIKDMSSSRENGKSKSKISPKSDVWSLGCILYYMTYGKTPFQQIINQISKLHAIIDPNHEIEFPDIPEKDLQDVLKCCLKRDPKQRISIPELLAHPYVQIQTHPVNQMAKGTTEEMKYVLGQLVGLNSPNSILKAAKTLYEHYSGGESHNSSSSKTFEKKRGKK
In short: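 Kinase activity of N-terminally GST-tagged full-length recombinant Mps-1, used at about 1 nM final and set within the linear range, was measured on a biotinylated peptide substrate. Phosphopeptide was detected by TR-FRET from Eu-anti-phospho(Ser/Thr) antibody to streptavidin-XLent after 1 h at 22° C.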

[2] = test system: Hepatocytes from Han Wistar rats; assay: In vitro metabolic stability in rat hepatocytes (calculation of hepatic in vivo blood clearance and Fmax); assay type: in vitro ADME; conditions: for Fmax [%]: maximal oral bioavailability calculated from half-life in rat hepatocytes, 1 μM test compound
Experimental: Investigation of In Vitro Metabolic Stability in Rat Hepatocytes (Including Calculation of Hepatic In Vivo Blood Clearance (CL))
Hepatocytes from Han Wistar rats were isolated via a 2-step perfusion method. After perfusion, the liver was carefully removed from the rat: the liver capsule was opened and the hepatocytes were gently shaken out into a Petri dish with ice-cold WME. The resulting cell suspension was filtered through sterile gaze in 50 ml falcon tubes and centrifuged at 50×g for 3 min at room temperature. The cell pellet was resuspended in 30 ml WME and centrifuged through a Percoll® gradient for 2 times at 100×g. The hepatocytes were washed again with Williams' medium E (WME) and resuspended in medium containing 5% FCS. Cell viability was determined by trypan blue exclusion.
For the metabolic stability assay liver cells were distributed in WME containing 5% FCS to glass vials at a density of 1.0×10^6 vital cells/ml. The test compound was added to a final concentration of 1 μM. During incubation, the hepatocyte suspensions were continuously shaken and aliquots were taken at 2, 8, 16, 30, 45 and 90 min, to which equal volumes of cold methanol were immediately added. Samples were frozen at −20° C. over night, after subsequently centrifuged for 15 minutes at 3000 rpm and the supernatant was analyzed with an Agilent 1200 HPLC-system with LCMS/MS detection.
The half-life of a test compound was determined from the concentration-time plot. From the half-life the intrinsic clearances were calculated. Together with the additional parameters liver blood flow, amount of liver cells in vivo and in vitro. The hepatic in vivo blood clearance (CL) and the maximal oral bioavailability (Fmax) was calculated. The following parameter values were used: Liver blood flow—4.2 L/h/kg rat; specific liver weight—32 g/kg rat body weight; liver cells in vivo—1.1×10^8 cells/g liver, liver cells in vitro—0.5×10^6/ml.

Row | SMILES | IC50 [1] [nM] | Fmax [%] [2] [%] | increase of metabolic stability ([2]; relative increase of Fmax (rat hepatocytes) against the comparison compound of the same table) [%]
1 | Cc1cc(-c2cnc3c(NCCC(F)(F)F)cc(Oc4cccc(F)c4)nn23)ccc1C(=O)NC1CC1 [Example 80, N-cyclopropyl-4-{6-(3-fluorophenoxy)-8-[(3,3,3-trifluoropropyl)amino]imidazo[1,2-b]pyridazin-3-yl}-2-methylbenzamide] | 0.2 | 56 | 81
2 | Cc1cc(-c2cnc3c(NCC4CCOCC4)cc(Oc4cccc(F)c4)nn23)ccc1C(=O)NC1CC1 [Example 323, N-cyclopropyl-4-{6-(3-fluorophenoxy)-8-[(tetra-hydro-2H-pyran-4-yl-methyl)amino]imidazo[1,2-b]pyridazin-3-yl}-2-methylbenzamide] | 0.2 | 31 | 
3 | Cc1ccc(F)cc1Oc1cc(NCCC(F)(F)F)c2ncc(-c3ccc(C(=O)NC4CC4)c(C)c3)n2n1 [Example 390, N-cyclopropyl-4-{6-(5-fluoro-2-methylphenoxy)-8-[(3,3,3-trifluoropropyl)amino]imidazo[1,2-b]pyridazin-3-yl}-2-methylbenzamide] | 0.1 | 55 | 
4 | Cc1ccc(F)cc1Oc1cc(NCC(C)(C)O)c2ncc(-c3ccc(C(=O)NC4CC4)c(C)c3)n2n1 [Example 391, N-cyclopropyl-4-{6-(5-fluoro-2-methylphenoxy)-8-[(2-hydroxy-2-methylpropyl)amino]imidazo[1,2-b]pyridazin-3-yl}-2-methylbenzamide] | 0.1 | 47 | 
5 | COc1ccc(Oc2cc(NCC3CCOCC3)c3ncc(-c4ccc(C(=O)NC5CC5)cc4)n3n2)c(F)c1 [Example 444, N-cyclopropyl-4-{6-(2-fluoro-4-methoxyphenoxy)-8-[(tetrahydro-2H-pyran-4-ylmethyl)amino]imidazo[1,2-b]pyridazin-3-yl}benzamide] |  | 22 | 
6 | COc1ccc(Oc2cc(NCC3CCOCC3)c3ncc(-c4ccc(C(=O)NC5CC5)c(C)c4)n3n2)c(F)c1 [Example 445, N-cyclopropyl-4-{6-(2-fluoro-4-methoxyphenoxy)-8-[(tetrahydro-2H-pyran-4-ylmethyl)amino]imidazo[1,2-b]pyridazin-3-yl}-2-methylbenzamide] | 0.2 | 61 | 
7 | Cc1cc(-c2cnc3c(NCCC(F)(F)F)cc(Oc4cccc(F)c4)nn23)ccc1C(=O)NC1(C)CC1 [Example 461, 4-{6-(3-fluorophenoxy)-8-[(3,3,3-trifluoropropyl)amino]imidazo[1,2-b]pyridazin-3-yl}-2-methyl-N-(1-methylcyclopropyl)benzamide] | 0.2 | 75 | 
8 | O=C(NC1CC1)c1ccc(-c2cnc3c(NCCC(F)(F)F)cc(Oc4cccc(F)c4)nn23)cc1 [Example 463, N-cyclopropyl-4-{6-(3-fluorophenoxy)-8-[(3,3,3-trifluoropropyl)amino]imidazo[1,2-b]pyridazin-3-yl}benzamide] |  | 7 | 
9 | COCCNc1cc(Oc2cccc(F)c2)nn2c(-c3ccc(C(=O)NC4CC4)c(C)c3)cnc12 [Example 492, N-cyclopropyl-4-{6-(3-fluoro-phenoxy)-8-[(2-methoxyethyl)amino]imidazo[1,2-b]pyridazin-3-yl}-2-methylbenzamide] | 0.1 | 42 | 
10 | Cc1cc(-c2cnc3c(NCCN4CCOCC4)cc(Oc4cccc(F)c4)nn23)ccc1C(=O)NC1CC1 [Example 500, N-cyclopropyl-4-[6-(3-fluoro-phenoxy)-8-{[2-(morpholin-4-yl)ethyl]amino}imidazo[1,2-b]pyridazin-3-yl]-2-methylbenzamide] | 0.1 | 40 | 
11 | CNc1cc(Oc2cccc(F)c2)nn2c(-c3ccc(C(=O)NC4CC4)c(C)c3)cnc12 [Example 510, N-cyclopropyl-4-[6-(3-fluoro-phenoxy)-8-(methylamino)imidazo[1,2-b]pyridazin-3-yl]-2-methylbenzamide] | 0.1 | 39 | 
12 | Cc1cc(-c2cnc3c(NCCS(C)(=O)=O)cc(Oc4cccc(F)c4F)nn23)ccc1C(=O)NC1CC1 [Example 516, N-cyclopropyl-4-[6-(2,3-difluorophenoxy)-8-{[2-(methylsulfonyl)ethyl]amino}imidazo[1,2-b]pyridazin-3-yl]-2-methylbenzamide] | 0.3 | 69 | 
13 | Cc1cc(-c2cnc3c(NCC4CCN(C)CC4)cc(Oc4cccc(F)c4F)nn23)ccc1C(=O)NC1CC1 [Example 526, N-cyclopropyl-4-[6-(2,3-difluorophenoxy)-8-{[(1-methylpiperidin-4-yl)-methyl]amino}imidazo[1,2-b]pyridazin-3-yl]-2-methylbenzamide] | 0.1 | 50 | 
14 | Cc1cc(-c2cnc3c(NCCN4CCOCC4)cc(Oc4cccc(F)c4F)nn23)ccc1C(=O)NC1CC1 [Example 536, N-cyclopropyl-4-[6-(2,3-difluorophenoxy)-8-{[2-(morpholin-4-yl)ethyl]amino}imidazo[1,2-b]pyridazin-3-yl]-2-methylbenzamide] | 0.3 | 37 | 
